Laboratory results reported in patent publication US8227601B2, “Diaryl-purines, azapurines and -deazapurines as non-nucleoside reverse transcriptase inhibitor for treatment of HIV” (priority 2005, dated 2012).
Where two headings read alike, the source gives them in different places.

Legend:
Experiment in all cases: microbe, parasite or virus in culture
Type in all cases: cell-based, human immunodeficiency virus type 1 (HIV-1)
[1] = system: HIV-1 L1001-K103N
[2] = system: HIV-1 Y181C
[3] = system: wild type HIV-1
[4] = system: HIV-1 Y188L
[5] = Human immunodeficiency virus 1, read-out: EC50 L1001-K103N (nM), L1001-K103N mutant
[6] = Human immunodeficiency virus 1, read-out: EC50 Y181C (nM), Y181C mutant
[7] = Human immunodeficiency virus 1, Hela-JC53, read-out: EC50 WT (nM)
[8] = Human immunodeficiency virus 1, read-out: EC50 Y188L (nM)

Row | Compound | EC50 [1, 5] | EC50 [2, 6] | EC50 [3, 7] | EC50 [4, 8] | EC50 ([1]; read-out: EC50 L1001-K103N, L1001-K103N mutant) | EC50 ([2]; read-out: EC50 Y181C, Y181C mutant) | EC50 ([3]; read-out: EC50 WT, wild-type HIV-1) | EC50 ([4]; read-out: EC50 Y188L, Y188L mutant)
1 | Cc1cc(C)c(Oc2nc(Nc3ccc(C#N)cc3)nc3[nH]ccc23)c(C)c1 [Cpd 1] | 10 to 100 nM | 10 to 100 nM | < 10 nM | 10 to 100 nM |  |  |  | 
2 | Cc1cc(C)c(Sc2nc(Nc3ccc(C#N)cc3)nc3[nH]ccc23)c(C)c1 [Cpd 2] | > 100 nM | 10 to 100 nM | < 10 nM | 10 to 100 nM |  |  |  | 
3 | Cc1cc(C#N)cc(C)c1Oc1nc(Nc2ccc(C#N)cc2)nc2[nH]ccc12 [Cpd 3] | < 10 nM | < 10 nM | < 10 nM | < 10 nM |  |  |  | 
4 | Cc1cc(C)c(Nc2nc(Nc3ccc(C#N)cc3)nc3[nH]ccc23)c(C)c1 [Cpd 4] | 10 to 100 nM | 10 to 100 nM | < 10 nM | 10 to 100 nM |  |  |  | 
5 | Cc1cc(C)c(Oc2nc(Nc3ccc(C#N)cc3)nc3[nH]cnc23)c(C)c1 [Cpd 5] | < 10 nM | < 10 nM | < 10 nM | < 10 nM |  |  |  | 
6 | Cc1cc(Br)cc(C)c1Oc1nc(Nc2ccc(C#N)cc2)nc2[nH]ccc12 [Cpd 6] | 10 to 100 nM | 10 to 100 nM | < 10 nM | 10 to 100 nM |  |  |  | 
7 | Cc1cc(C)c(Oc2nc(Nc3ccc(C#N)cc3)nc3[nH]ncc23)c(C)c1 [Cpd 7] | 10 to 100 nM | < 10 nM | < 10 nM | 10 to 100 nM |  |  |  | 
8 | Cc1cc(Br)cc(Cl)c1Oc1nc(Nc2ccc(C#N)cc2)nc2c1ccn2Cc1ccccc1 [Cpd 8] | > 100 nM | > 100 nM | 10 to 100 nM | > 100 nM |  |  |  | 
9 | Cc1ccc(Oc2nc(Nc3ccc(C#N)cc3)nc3[nH]ccc23)c(C)c1 [Cpd 9] | > 100 nM | > 100 nM | < 10 nM | > 100 nM |  |  |  | 
10 | Cc1cc(Br)cc(Cl)c1Oc1nc(Nc2ccc(C#N)cc2)nc2[nH]ccc12 [Cpd 10] | 10 to 100 nM | 10 to 100 nM | < 10 nM | 10 to 100 nM |  |  |  | 
11 | Cc1cc(Cl)cc(C)c1Oc1nc(Nc2ccc(C#N)cc2)nc2[nH]ccc12 [Cpd 11] | 10 to 100 nM | 10 to 100 nM | < 10 nM | < 10 nM |  |  |  | 
12 | Cc1cc(C)c(Oc2nc(Nc3ccc(S(N)(=O)=O)cc3)nc3[nH]cnc23)c(C)c1 [Cpd 12] | > 100 nM | > 100 nM | 10 to 100 nM | > 100 nM |  |  |  | 
13 | Cc1cc(C#N)cc(C)c1Oc1nc(Nc2ccc(C#N)cc2)nc2c1ccn2C [Cpd 13] | < 10 nM | < 10 nM | < 10 nM | < 10 nM |  |  |  | 
14 | COC(=O)c1ccc(Nc2nc(Oc3c(C)cc(C)cc3C)c3nc[nH]c3n2)cc1 [Cpd 14] | > 100 nM | > 100 nM | < 10 nM | > 100 nM |  |  |  | 
15 | Cc1cc(C)c(Oc2nc(Nc3ccc(C(N)=O)cc3)nc3[nH]cnc23)c(C)c1 [Cpd 15] | > 100 nM | > 100 nM | 10 to 100 nM | > 100 nM |  |  |  | 
16 | Cc1cc(C)c(Oc2nc(Nc3ccc(C(=O)O)cc3)nc3[nH]cnc23)c(C)c1 [Cpd 16] | > 100 nM | > 100 nM | > 100 nM | > 100 nM |  |  |  | 
17 | Cc1cc(C#N)cc(C)c1Oc1nc(Nc2ccc(C#N)cc2)nc2[nH]ncc12 [Cpd 17] | 10 to 100 nM | 10 to 100 nM | < 10 nM | < 10 nM |  |  |  | 
18 | Cc1cc(C)c(Oc2nc(Nc3ccc(C#N)cc3)nc3[nH]cc(Cl)c23)c(C)c1 [Cpd 18] | > 100 nM | > 100 nM | 10 to 100 nM | > 100 nM |  |  |  | 
19 | Cc1cc(C2CC2)cc(C)c1Oc1nc(Nc2ccc(C#N)cc2)nc2[nH]cnc12 [Cpd 19] | 10 to 100 nM | < 10 nM | < 10 nM | < 10 nM |  |  |  | 
20 | Cc1ccc(Nc2nc(Nc3ccc(C#N)cc3)nc3[nH]cnc23)c2ccccc12 [Cpd 20] | > 100 nM | 10 to 100 nM | < 10 nM | > 100 nM |  |  |  | 

Row | Compound | EC50 [1, 5] | EC50 [2, 6] | EC50 [3, 7] | EC50 [4, 8] | EC50 ([1]; read-out: EC50 L1001-K103N, L1001-K103N mutant) | EC50 ([2]; read-out: EC50 Y181C, Y181C mutant) | EC50 ([3]; read-out: EC50 WT, wild-type HIV-1) | EC50 ([4]; read-out: EC50 Y188L, Y188L mutant)
21 | N#Cc1ccc(Nc2nc(Oc3ccc(Cl)c4ccccc34)c3nc[nH]c3n2)cc1 [Cpd 21] | > 100 nM | 10 to 100 nM | < 10 nM | 10 to 100 nM |  |  |  | 
22 | N#Cc1ccc(Nc2nc(Nc3ccc(C4CC4)c4ccccc34)c3nc[nH]c3n2)cc1 [Cpd 22] | > 100 nM | > 100 nM | < 10 nM | > 100 nM |  |  |  | 
23 | Cc1cc(C)c(Nc2nc(Nc3ccc(C#N)cc3)nc3[nH]cnc23)c(C)c1 [Cpd 23] | 10 to 100 nM | < 10 nM | < 10 nM | < 10 nM |  |  |  | 
24 | N#Cc1ccc(Nc2nc(Nc3ccc(C#N)cc3)c3nc[nH]c3n2)cc1 [Cpd 24] | > 100 nM | > 100 nM | 10 to 100 nM | > 100 nM |  |  |  | 
25 | Cc1cc(C#N)cc(C)c1Oc1nc(Nc2ccc(C#N)cc2)nc2[nH]cnc12 [Cpd 25] | 10 to 100 nM | < 10 nM | < 10 nM | < 10 nM |  |  |  | 
26 | CCn1ccc2c(Oc3c(C)cc(C#N)cc3C)nc(Nc3ccc(C#N)cc3)nc21 [Cpd 26] | > 100 nM | 10 to 100 nM | < 10 nM | 10 to 100 nM |  |  |  | 
27 | Cc1cc(C2CC2)cc(Cl)c1Nc1nc(Nc2ccc(C#N)cc2)nc2[nH]cnc12 [Cpd 27] | 10 to 100 nM | 10 to 100 nM | < 10 nM | 10 to 100 nM |  |  |  | 
28 | Cc1cc(C2CC2)cc(C)c1Nc1nc(Nc2ccc(C#N)cc2)nc2[nH]cnc12 [Cpd 28] | 10 to 100 nM | < 10 nM | < 10 nM | 10 to 100 nM |  |  |  | 
29 | N#Cc1ccc(Nc2nc(Nc3ccc4c(c3)CCC4)c3nc[nH]c3n2)cc1 [Cpd 29] | > 100 nM | > 100 nM | < 10 nM | > 100 nM |  |  |  | 
30 | Cc1ccc2cccc(Nc3nc(Nc4ccc(C#N)cc4)nc4[nH]cnc34)c2n1 [Cpd 30] | > 100 nM | > 100 nM | > 100 nM | > 100 nM |  |  |  | 
31 | Cc1cc(C)c(Oc2nc(Nc3ccc(C#N)cc3)nc3[nH]cnc23)c(C)c1 [Cpd 31] |  |  |  |  | 10 to 100 nM | 10 to 100 nM | < 10 nM | < 10 nM
32 | Cc1ccc2ccccc2c1Nc1nc(Nc2ccc(C#N)cc2)nc2[nH]cnc12 [Cpd 32] | > 100 nM | 10 to 100 nM | < 10 nM | > 100 nM |  |  |  | 
33 | Cc1cc(C2CC2)cc(C)c1Oc1nc(Nc2ccc(C#N)cc2)nc2[nH]ccc12 [Cpd 33] | 10 to 100 nM | 10 to 100 nM | < 10 nM | 10 to 100 nM |  |  |  | 
34 | Cc1cc(C)c(Oc2nc(Nc3ccc(F)cc3)nc3[nH]cnc23)c(C)c1 [Cpd 34] | 10 to 100 nM | < 10 nM | < 10 nM | 10 to 100 nM |  |  |  | 
35 | COc1ccc(Nc2nc(Oc3c(C)cc(C)cc3C)c3nc[nH]c3n2)cc1 [Cpd 35] | > 100 nM | 10 to 100 nM | < 10 nM | > 100 nM |  |  |  | 
36 | Cc1cc(C)c(Oc2nc(Nc3cccc(C#N)c3)nc3[nH]cnc23)c(C)c1 [Cpd 36] | > 100 nM | 10 to 100 nM | < 10 nM | > 100 nM |  |  |  | 
37 | Cc1cc(C)c(Oc2nc(Nc3ccc(C#N)cc3)nc3cc[nH]c23)c(C)c1 [Cpd 37] | < 10 nM | < 10 nM | < 10 nM | < 10 nM |  |  |  | 
38 | Cc1cc(C)c(Oc2nc(Nc3ccc(C(F)(F)F)cc3)nc3[nH]cnc23)c(C)c1 [Cpd 38] | > 100 nM | > 100 nM | 10 to 100 nM | > 100 nM |  |  |  | 
39 | Cc1cc(C)c(Oc2nc(Nc3cccc(C(F)(F)F)c3)nc3[nH]cnc23)c(C)c1 [Cpd 39] | > 100 nM | > 100 nM | > 100 nM | > 100 nM |  |  |  | 
